Our source for the melting point values is a melting point compilation (Tetko et al.; mined from patent text by program, amines drawn as free bases though some values may be those of a salt).

Structures are written as SMILES.

In general, melting point refers to the temperature of the solid-liquid transition. Turning to `Cc1ccc2[nH]cc(C3C(=O)N(C)C(=O)C3c3cn(C)c4ccc(C)cc34)c2c1` (stereo not given), the melting point is 103 to 105 °C.

For the compound `CCc1cc2c(cc1C(C)=O)CC(NC(=O)C(F)(F)F)C2` (stereo not given), the melting point lay within 124 to 127 °C.

`CCOC(=O)C1=C(C)Nc2nc(N3CCCCC3)nc(N3CCCCC3)c2C1c1cccc([N+](=O)[O-])c1` (stereo not given): the melting point worked out at 169 °C.

`Cc1cc(C)c2nc(NCCCO)n(Cc3nc(C)ccc3O)c2c1` returned a melting point of 170 °C.

The compound `O=S(=O)(c1ccc(O)cc1)c1ccccn1` had a melting point of 148 °C.

On to `CCC(=O)Oc1ccc(C(=O)c2ccc(Sc3ccccc3)cc2)c(O)c1`, for which the melting point is 88 to 90 °C.

`CN1CCC(Oc2ccc(C(=O)NN)cc2)CC1`: the melting point fell in the range of 110 to 112 °C.

Take `CCOC(=O)CC1OC(=O)c2c(Oc3nc(OC)cc(OC)n3)cccc21` (stereo not given): the melting point was 150 to 152 °C.

`Cc1nc2c(OCc3ccccc3)cccn2c1CC#N`: the melting point lay within 163 to 166 °C.

`COC(=O)C(C#N)=C(Nc1cccnc1)SC`: the melting point was greater than 260 °C.

`CSc1ccc2c(c1)C(SCCBr)Cc1ccccc1O2` (stereo not given) came in with a melting point of 64 to 66 °C.

For the compound `CCCCc1c(OC)cc(C)c(C=CC(C)=CC=CC(C)=CC(=O)OCC)c1C`, the melting point lay in the range of 147 to 148 °C.

Regarding `Nc1ccc(Nc2cccc(O)c2)cc1`, the melting point was 146 to 149 °C.

In turn, `O=c1[nH]c(=Cc2ccccc2[N+](=O)[O-])c(=O)[nH]c1=Cc1ccc(OCc2ccccc2)cn1` had a melting point of 295 to 296 °C.

On to `CCC(C#N)Oc1nc2cc(OC)cc(OC)c2cc1-c1ccc(OC)cc1` (stereo not given), for which the melting point lay in the range of 89 to 90 °C.

The compound `Cc1cc2c(cc1-c1cc(C=C3SC(=O)NC3=O)ccc1N(C)C)N(C(C)C)C(=O)CC2(C)C` had a melting point of 274 to 276 °C.

On to `COc1cc(Nc2c(C#N)cnc3cc(-c4ccc(CN5CCN(CCO)CC5)cc4)sc23)c(Cl)cc1Cl`, for which the melting point is 189 to 190 °C.

Take `Cc1ccc2[nH]c(=O)c(C(=O)NC3CCCCC3)c(O)c2c1`: the melting point amounted to 269 °C.

`CCOC(=O)Cc1nc2c(OCc3ccccc3)cccc2n1C` gave a melting point of 106 °C.

For the compound `CCCCCCCCCCCCCCNC(=O)Nc1sc(C(=O)O)c(C)c1C(=O)OC(C)(C)C`, the melting point lay within 176 to 178 °C.

Take `NS(=O)(=O)c1cnc(S(=O)(=O)c2ccccc2)s1`: the melting point was 119 to 120 °C.

For `COc1ccc(Nc2cc(C)nc(N)n2)cc1Cl`, the melting point is 250 °C.

`Cc1nc(-n2cnn(CC3CC3(F)F)c2=O)sc1C(=O)O` (stereo not given): the melting point fell in the range of 220 to 222 °C.

As for `Cc1ccc2c(c1)c(N1CCN(C(=O)c3cccs3)CC1)c(C#N)c(=O)n2CCN1CCOCC1`, the melting point worked out at 207 °C.

As to `COC(=O)COc1cccc2c(CCSC(c3ccc(O)cc3)c3ccc(O)cc3)c(C)oc12`, the melting point was 178 to 180 °C.

For the compound `COc1cccc(N2CCN(S(=O)(=O)c3cccc(/C=C/C(=O)NO)c3)CC2)c1`, the melting point came out at 196 °C.

Consider `CCOC(=O)COc1cc(OC)c2c(c1)OC1(CCCC1)CC2=O`, for which the melting point was in the range of 81 to 82 °C.

For the compound `O=C(NCc1ccccc1[N+](=O)[O-])C1Cc2ccccc2N1S(=O)(=O)c1ccc(-c2ccc(F)cc2F)cc1` (stereo not given), the melting point lay within 99 to 102 °C.

As to `Sc1nc2ccccc2c2nc(-c3ccoc3)nn12`, the melting point fell in the range of 290 to 292 °C.

With `CCCCCCCCc1ccc(N(c2ccc(CCCCCCCC)cc2)C2(c3ccc(N(C)C)cc3C)OC(=O)c3ccccc32)cc1` (stereo not given), the melting point fell in the range of 172 to 174 °C.

`Cc1cccc(-n2c(-c3cc(-c4ccccc4)c(N4CCOCC4)s3)nc3ccccc3c2=O)c1` displayed a melting point of 194 to 196 °C.

The compound `Cc1c(C)c2c(c(C)c1NC(=O)CC(C)(C)C)C(=O)C(C)(C)O2` displayed a melting point of 155 to 156 °C.

In turn, `COc1cc2c(cc1-c1cccnc1)-c1c(-c3cncs3)c3c(n1CC2)C(=O)N(C(C)(C)C)CCCC3` showed a melting point of 227 to 229 °C.

For `CCCOc1ccccc1-c1nc2nc(NN)ncc2c(=O)[nH]1`, the melting point was 219 to 220 °C.

For the compound `NS(=O)(=O)OCCOc1cccc(O)c1`, the melting point is 56 to 60 °C.

For the compound `O=C(CC(C(=O)O)c1ccccc1)Nc1cc(Cc2n[nH]c(=O)c3ccccc23)ccc1F` (stereo not given), the melting point fell in the range of 180 to 183 °C.

As for `CCOC(=O)C1=C(C)N2CCNC2=C(C(=O)OCC)C1C` (stereo not given), the melting point was 138 °C.

For the compound `CCOC(=O)c1cnoc1-c1ccc(Cl)s1`, the melting point lay within 74 to 75 °C.

`Cc1ccc(COC2C(Sc3ccccc3)OC(C)C(O)C2O)cc1` (stereo not given) returned a melting point of 146 to 147 °C.

`CCc1nc2c(N)nc3ccccc3c2n1CCCCNS(=O)(=O)c1ccccc1` yielded a melting point of 181 to 182 °C.

As to `Cc1noc(C)c1S(=O)(=O)Nc1cccc(C=C2c3ccccc3CCc3ccccc32)c1`, the melting point is 149 °C.

In the case of `O=C(O)Cn1c(=O)c(=O)[nH]c2ccc([N+](=O)[O-])cc21`, the melting point lay in the range of 305 to 306 °C.

In the case of `Cc1nc(-c2ccc(-c3ccc(C(=O)Nc4cc(OCCN(C)C)c(I)cc4I)cc3)c(C)c2)no1`, the melting point was 69 to 71 °C.

On to `S=C1CC(c2ccc(Cl)cc2)Oc2ccccc21` (stereo not given), for which the melting point was in the range of 116 to 120 °C.

`CC(C)c1ccc(C(=O)CCc2ccccc2)c(C(C)C)c1OS(N)(=O)=O`: the melting point lay in the range of 121 to 124 °C.

Turning to `CCCOc1ccc(S(=O)(=O)N2CCN(CC)CC2)cc1-c1nc2cc3ncn(Cc4ccccc4Cl)c3cc2c(=O)[nH]1`, the melting point is 225 to 226 °C.

As for `CC(NC(=O)C1(Cl)C(C)(C)C1(Cl)Cl)c1ccc(Cl)cc1` (stereo not given), the melting point fell in the range of 138 to 139 °C.

The compound `CCOC(=O)COc1ccc(C(=O)Nc2cccc(Cl)c2Sc2ccccc2-c2nnn[nH]2)cc1` gave a melting point of 180 to 182 °C.

For `CCN(CC)CCNc1cc(Cl)c(N)c(CCN(CC)CC)c1[N+](=O)[O-]`, the melting point came out at 90 °C.

As for `CC1(C)OC(C=CC=Cc2ccc(Cl)cc2)=CC1=O`, the melting point was in the range of 95 to 96 °C.

In turn, `COc1cc2[nH]c(=O)c([N+](=O)[O-])c(C(F)(F)F)c2cc1OC` registered a melting point of 270 °C.

The compound `COc1cccc([C@@]23CCN(C)C[C@@H]2Cc2cc4ccccc4nc2C3)c1` displayed a melting point of 154 to 156 °C.

The compound `CCOc1cc(-c2cc(C(F)F)n3ncc(C(=O)O)c3n2)ccc1C(F)(F)F` registered a melting point of 247 °C.

Take `CC(C)NC(=O)OCC1CSC2=C(O1)c1ccccc1C(=O)C2=O` (stereo not given): the melting point was in the range of 218 to 220 °C.

As to `COC(=O)c1cc(Cl)c2c(c1OC)CCCN2`, the melting point was 105 to 108 °C.

In turn, `Cc1nn(C(=O)NC2CCCCC2)c(=O)n1NC(C)C` registered a melting point of 92 °C.

For the compound `C[C@@]1(c2ccccc2)OC(c2ccccc2)=NC[C@H]1OC(=O)Nc1ccccc1` (racemic), the melting point amounted to 180 °C.

On to `COc1ccc(CSc2nnc(-c3ccc4ncsc4c3)o2)cc1`, for which the melting point lay in the range of 134 to 135 °C.

The compound `CCOC(=O)C(C)=C(C)NC(=O)Nc1ccc(Cl)c(C(=O)OCC)c1` displayed a melting point of 88 to 91 °C.

`CCOC(=O)c1oc2c(-c3ccc(F)cc3)c(-c3ccc(S(C)(=O)=O)cc3)nn2c1C`: the melting point was in the range of 203 to 204 °C.

For `COc1cc(C(O)Cc2c(C)cncc2C)nnc1OC` (stereo not given), the melting point was 217 to 218 °C.

`CCC(C)N(C)C(=O)c1cc(-c2ccccc2Cl)c2sccc2c1` (stereo not given): the melting point was determined as 98 °C.

For the compound `CCC1CC2=CCCCC2C2CCC3(C)C(O)CCC3C12` (stereo not given), the melting point is 155 to 157 °C.

As to `CNC(=O)C(Cc1ccc(Br)cc1)NC(=O)Nc1n[nH]c(=S)s1` (stereo not given), the melting point lay within 238 to 241 °C.

`CCCCNC(=O)c1ccc2c(c1)[C@H]1OCCN(CCC)[C@@H]1CC2` (relative stereo) gave a melting point of 128 to 131 °C.

On to `Cc1ccc(O)c(-c2cc3ccccn3n2)c1`, for which the melting point was determined as 108 °C.

Compound `Cc1cnc(N2N=C(c3ccc([N+](=O)[O-])cc3)c3cc4c(cc3CC2C)OCO4)s1` (stereo not given) registered a melting point of 193 to 195 °C.

For `CCCCCCCCCCCCCCCCCCOC[C@@H]1CO[C@@H](COC(=O)Nc2ccncc2)C1` (relative stereo), the melting point was 118 to 123 °C.

As to `N#Cc1cnc2sc(-c3ccccc3)cc2c1NCc1ccc2[nH]ccc2c1`, the melting point fell in the range of 219 to 221 °C.

Consider `CCN1CC(=O)N(CCc2ccccc2)C1=S`, for which the melting point lay within 66 to 68 °C.

With `CC12CCC(C1)C1(C)Oc3ccc(C=O)cc3C21C` (stereo not given), the melting point amounted to 145 °C.

For the compound `Cc1ccccc1-n1c(Cn2cnc3c(N)ncnc32)nc2cccc(Cl)c2c1=O`, the melting point was 262 to 266 °C.

With `COc1cc(C=CC(=O)Nc2c(-c3ccccc3)c3cc(C)cc(C)c3oc2=O)cc(OC)c1OC(C)=O`, the melting point lay in the range of 245 to 248 °C.

`N#Cc1cccc(CN2C(=O)c3ccccc3C2=O)c1` had a melting point of 147 to 149 °C.

In turn, `O=C(N[C@H](Cc1ccc(C(F)(F)F)cc1)[C@@H](O)c1ccc(F)cc1)c1cccc2cccc(Br)c12` (racemic) displayed a melting point of 191 to 192 °C.

`O=C(NC1(C(=O)O)CC1)C(CS)Cc1ccccc1` (stereo not given) displayed a melting point of 222 to 224 °C.

In turn, `CCc1c2n(c3ccccc13)C(=O)C(Cc1ncn(C(c3ccccc3)(c3ccccc3)c3ccccc3)c1C)CC2` (stereo not given) showed a melting point of 78 to 82 °C.

`COc1cccc2c1[nH]c1c(C(=O)O)cccc12` showed a melting point of 252 °C.

With `CC(C)C(NS(=O)(=O)c1ccc(-c2cccc(CNC(=O)c3nc4ccccc4c(=O)[nH]3)c2)cc1)C(=O)O` (stereo not given), the melting point lay in the range of 141 to 143 °C.

For `CCC(=O)NCCC1=C(C(C)C)Cc2cnc3c(c21)CCO3`, the melting point fell in the range of 168 to 170 °C.

In turn, `O=c1nc(-c2c(F)cccc2F)oc(=O)n1-c1cc(Cl)c(Oc2ncc(OC(F)F)cc2Cl)c(Cl)c1` gave a melting point of 154 to 156 °C.

Consider `COc1ccc(Cn2c(=O)[nH]c3ccc(C)cc3c2=O)cc1`, for which the melting point fell in the range of 263 to 265 °C.

In turn, `N#CCCc1cc(F)c2ncc(C(=O)NCc3ccc(Cl)cc3)c(O)c2c1` came in with a melting point of 273 to 274 °C.

For the compound `Cc1c(F)c(F)cc(C(=O)O)c1F`, the melting point was 101 to 102 °C.

`C=CCC(C(N)=O)C(CC(C)C)C(=O)NC1N=C(c2cccnc2)c2ccccc2N(C)C1=O` (stereo not given) registered a melting point of 251 to 253 °C.
